Like-named read-outs stand apart in the source and are kept apart here.
Tests used:
CK1ε = CK1ε (Homo sapiens (Human), UniProt P49674); assay: CK1ε kinase assay (Caliper LABCHIP electrophoretic separation of fluoresceinated peptide substrate and product); format: biochemical; conditions: read-out: CK1ε (IC50)
Outline: (§1)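 Incubated for twenty-two hours at ambient temperature, then quenched with EDTA and analyzed by electrophoretic separation of unphosphorylated and phosphorylated peptide.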

CK1δ = CK1δ (Homo sapiens (Human), UniProt P48730); assay: CK1δ kinase assay (Caliper LABCHIP electrophoretic separation of fluoresceinated peptide substrate and product); format: biochemical; conditions: 200 pM CK1δ, 50 μM ATP, 1.5 μM peptide substrate, 22 hours at room temperature; read-out: CK1δ (IC50)
Chain of CK1δ (P48730 whole entry): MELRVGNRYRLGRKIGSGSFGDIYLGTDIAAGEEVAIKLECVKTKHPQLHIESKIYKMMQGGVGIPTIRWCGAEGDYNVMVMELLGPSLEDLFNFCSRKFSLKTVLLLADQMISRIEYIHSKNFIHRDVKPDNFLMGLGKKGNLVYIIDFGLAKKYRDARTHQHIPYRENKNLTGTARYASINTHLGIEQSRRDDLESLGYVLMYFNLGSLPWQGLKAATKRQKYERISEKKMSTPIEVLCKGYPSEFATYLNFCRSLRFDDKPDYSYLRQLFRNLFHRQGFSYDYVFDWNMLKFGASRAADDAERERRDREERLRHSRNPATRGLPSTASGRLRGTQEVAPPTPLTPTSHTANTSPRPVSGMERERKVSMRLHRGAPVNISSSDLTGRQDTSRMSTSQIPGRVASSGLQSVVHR
Outline: as §1

[1] = 200 pM CK1ε, 50 μM ATP, 1.5 μM peptide substrate, 22 hours at room temperature

Chain of CK1ε (P49674 whole entry): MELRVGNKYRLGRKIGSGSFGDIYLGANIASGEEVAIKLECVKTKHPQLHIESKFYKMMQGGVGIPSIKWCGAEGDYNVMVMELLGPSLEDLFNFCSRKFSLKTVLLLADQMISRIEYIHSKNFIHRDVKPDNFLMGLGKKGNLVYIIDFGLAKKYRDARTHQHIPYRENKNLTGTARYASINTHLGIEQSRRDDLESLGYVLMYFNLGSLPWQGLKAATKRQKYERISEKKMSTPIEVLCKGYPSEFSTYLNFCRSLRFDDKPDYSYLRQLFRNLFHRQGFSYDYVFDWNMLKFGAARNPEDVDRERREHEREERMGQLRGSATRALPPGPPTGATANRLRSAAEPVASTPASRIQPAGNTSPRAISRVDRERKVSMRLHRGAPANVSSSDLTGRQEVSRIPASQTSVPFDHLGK

SMILES	IC50 (CK1ε; [1])	IC50 (CK1δ)	IC50 (CK1ε)
N#Cc1ccc(NC(=O)N2CCn3nc(-c4ccc(Cl)c(Cl)c4)c(C(N)=O)c3C2)cc1C(F)(F)F [Compound 208, N^5-(4-Cyano-3-(trifluoromethyl)phenyl)-2-(3,4-dichlorophenyl)-6,7-dihydropyrazolo[1,5-a] pyrazine-3,5(4H)-dicarboxamide]	0.01 to 10 nM	0.01 to 10 nM	
NC(=O)c1c(-c2ccc(Cl)c(Cl)c2)nn2c1CN(C(=O)Nc1ccc(Cl)c(Cl)c1)CC2 [Compound 209]	0.01 to 10 nM	0.01 to 10 nM	
NC(=O)c1c(-c2ccc(Cl)c(Cl)c2)nn2c1CN(C(=O)Nc1cc(F)cc(C(F)(F)F)c1)CC2 [Compound 212, 2-(3,4-Dichlorophenyl)-N^5-(3-fluoro-5-(trifluoromethyl)phenyl)-6,7-dihydropyrazolo [1,5-a]pyrazine-3,5(4H)-dicarboxamide]	0.01 to 10 nM	0.01 to 10 nM	
NC(=O)c1c(-c2ccc(Cl)c(Cl)c2)nn2c1CN(C(=O)Nc1ccc(OC(F)(F)F)cc1)CC2 [Compound 213, 2-(3,4-Dichlorophenyl)-N^5-(4-(trifluoromethoxy)phenyl)-6,7-dihydropyrazolo[1,5-a] pyrazine-3,5(4H)-dicarboxamide]	0.01 to 10 nM	0.01 to 10 nM	
Cc1cc(NC(=O)N2CCn3nc(-c4ccc(Cl)c(Cl)c4)c(C(N)=O)c3C2)ccc1C#N [Compound 214, N^5-(4-Cyano-3-methylphenyl)-2-(3,4-dichlorophenyl)-6,7-dihydropyrazolo[1,5-a] pyrazine-3,5(4H)-dicarboxamide]	0.01 to 10 nM	0.01 to 10 nM	
N#Cc1ccc(NC(=O)N2CCn3nc(-c4cc(F)cc(Cl)c4)c(C(N)=O)c3C2)cc1F [Compound 215, 2-(3-Chloro-5-fluorophenyl)-N^5-(4-cyano-3-fluorophenyl)-6,7-dihydropyrazolo[1,5-a]pyrazine-3,5(4H)-dicarboxamide]	0.01 to 10 nM	0.01 to 10 nM	
NC(=O)c1c(-c2cc(F)cc(Cl)c2)nn2c1CN(C(=O)Nc1cc(Cl)cc(Cl)c1)CC2 [Compound 216, 2-(3-Chloro-5-fluorophenyl)-N^5-(3,5-dichlorophenyl)-6,7-dihydropyrazolo[1,5-a] pyrazine-3,5(4H)-dicarboxamide]	0.01 to 10 nM	0.01 to 10 nM	
NC(=O)c1c(-c2cc(F)cc(Cl)c2)nn2c1CN(C(=O)Nc1ccc(Cl)c(Cl)c1)CC2 [Compound 217, 2-(3-Chloro-5-fluorophenyl)-N^5-(3,4-dichlorophenyl)-6,7-dihydropyrazolo[1,5-a] pyrazine-3,5(4H)-dicarboxamide]	0.01 to 10 nM	0.01 to 10 nM	
N#Cc1ccc(NC(=O)N2CCn3nc(-c4cc(F)cc(Cl)c4)c(C(N)=O)c3C2)cc1C(F)(F)F [Compound 218, 2-(3-Chloro-5-fluorophenyl)-N^5-(4-cyano-3-(trifluoromethyl)phenyl)-6,7-dihydropyrazolo[1,5-a] pyrazine-3,5(4H)-dicarboxamide]	0.01 to 10 nM	10 to 100 nM	
Cc1cc(NC(=O)N2CCn3nc(-c4cc(F)cc(Cl)c4)c(C(N)=O)c3C2)ccc1C#N [Compound 221, 2-(3-Chloro-5-fluorophenyl)-N^5-(4-cyano-3-methylphenyl)-6,7-dihydropyrazolo[1,5-a]pyrazine-3,5(4H)-dicarboxamide]	0.01 to 10 nM	0.01 to 10 nM	
N#Cc1ccc(NC(=O)N2CCn3nc(-c4cc(F)cc(Cl)c4)c(C(N)=O)c3C2)cc1Cl [Compound 222, N^5-(3-Chloro-4-cyanophenyl)-2-(3-chloro-5-fluorophenyl)-6,7-dihydropyrazolo[1,5-a] pyrazine-3,5(4H)-dicarboxamide]	0.01 to 10 nM	0.01 to 10 nM	
Cc1cc(F)cc(-c2nn3c(c2C(N)=O)CN(C(=O)Nc2ccc(C#N)c(F)c2)CC3)c1 [Compound 224, N^5-(4-Cyano-3-fluorophenyl)-2-(3-fluoro-5-methylphenyl)-6,7-dihydropyrazolo[1,5-a] pyrazine-3,5(4H)-dicarboxamide]	0.01 to 10 nM	0.01 to 10 nM	
Cc1cc(F)cc(-c2nn3c(c2C(N)=O)CN(C(=O)Nc2ccc4ncsc4c2)CC3)c1 [Compound 225, N^5-(Benzo[d]thiazol-6-yl)-2-(3-fluoro-5-methylphenyl)-6,7-dihydropyrazolo[1,5-a] pyrazine-3,5(4H)-dicarboxamide]	0.01 to 10 nM	0.01 to 10 nM	
Cc1cc(F)cc(-c2nn3c(c2C(N)=O)CN(C(=O)Nc2ccc4c(c2)OC(F)(F)O4)CC3)c1 [Compound 227, N^5-(2,2-Difluorobenzo[d] [1,3]dioxol-5-yl)-2-(3-fluoro-5-methylphenyl)-6,7-dihydropyrazolo[1,5-a] pyrazine-3,5(4H)-dicarboxamide]	0.01 to 10 nM	0.01 to 10 nM	
Cc1cc(F)cc(-c2nn3c(c2C(N)=O)CN(C(=O)Nc2ccc(C#N)c(C(F)(F)F)c2)CC3)c1 [Compound 229, N^5-(4-Cyano-3-(trifluoromethyl)phenyl)-2-(3-fluoro-5-methylphenyl)-6,7-dihydropyrazolo[1,5-a] pyrazine-3,5(4H)-dicarboxamide]		0.01 to 10 nM	0.01 to 10 nM
Cc1cc(F)cc(-c2nn3c(c2C(N)=O)CN(C(=O)Nc2ccc(C#N)c(Cl)c2)CC3)c1 [Compound 230, N^5-(3-Chloro-4-cyanophenyl)-2-(3-fluoro-5-methylphenyl)-6,7-dihydropyrazolo[1,5-a] pyrazine-3,5(4H)-dicarboxamide]	0.01 to 10 nM	0.01 to 10 nM	
NC(=O)c1c(-c2ccc(F)c(F)c2)nn2c1CN(C(=O)Nc1ccc3c(c1)OC(F)(F)O3)CC2 [Compound 232, N^5-(2,2-Difluorobenzo [d][1,3]dioxol-5-yl)-2-(3,4-difluorophenyl)-6,7-dihydropyrazolo [1,5-a]pyrazine-3,5(4H)-dicarboxamide]	0.01 to 10 nM	0.01 to 10 nM	
N#Cc1ccc(NC(=O)N2CCn3nc(-c4ccc(F)c(F)c4)c(C(N)=O)c3C2)cc1C(F)(F)F [Compound 237, N^5-(4-Cyano-3-(trifluoromethyl)phenyl)-2-(3,4-difluorophenyl)-6,7-dihydropyrazolo [1,5-a]pyrazine-3,5(4H)-dicarboxamide]	0.01 to 10 nM	0.01 to 10 nM	
Cc1cc(-c2nn3c(c2C(N)=O)CN(C(=O)Nc2ccc(C#N)c(Cl)c2)CC3)ccc1F [Compound 244, N^5-(3-Chloro-4-cyanophenyl)-2-(4-fluoro-3-methylphenyl)-6,7-dihydropyrazolo[1,5-a] pyrazine-3,5(4H)-dicarboxamide]	0.01 to 10 nM	0.01 to 10 nM	
Cc1cc(-c2nn3c(c2C(N)=O)CN(C(=O)Nc2ccc(C#N)c(C(F)(F)F)c2)CC3)ccc1F [Compound 245, N^5-(4-Cyano-3-(trifluoromethyl)phenyl)-2-(4-fluoro-3-methylphenyl)-6,7-dihydropyrazolo[1,5-a] pyrazine-3,5(4H)-dicarboxamide]	0.01 to 10 nM	0.01 to 10 nM	

Continued, in another order:

IC50 (CK1ε; [1])	IC50 (CK1δ)	SMILES	IC50 (CK1ε)
0.01 to 10 nM	0.01 to 10 nM	NC(=O)c1c(-c2ccc(F)c(F)c2)nn2c1CN(C(=O)Nc1ccc3c(c1)CS(=O)(=O)C3)CC2 [Compound 234, 2-(3,4-Difluorophenyl)-N^5-(2,2-dioxido-1,3-dihydrobenzo[c]thiophen-5-yl)-6,7-dihydropyrazolo [1,5-a]pyrazine-3,5(4H)-dicarboxamide]	
0.01 to 10 nM	0.01 to 10 nM	N#Cc1ccc(NC(=O)N2CCn3nc(-c4ccc(F)c(F)c4)c(C(N)=O)c3C2)cc1F [Compound 236, N^5-(4-Cyano-3-fluorophenyl)-2-(3,4-difluorophenyl)-6,7-dihydropyrazolo[1,5-a] pyrazine-3,5(4H)-dicarboxamide]	
0.01 to 10 nM	0.01 to 10 nM	Cc1cc(-c2nn3c(c2C(N)=O)CN(C(=O)Nc2ccc4ncsc4c2)CC3)ccc1F [Compound 241, N^5-(Benzo[d]thiazol-6-yl)-2-(4-fluoro-3-methylphenyl)-6,7-dihydropyrazolo[1,5-a] pyrazine-3,5(4H)-dicarboxamide]	
0.01 to 10 nM	0.01 to 10 nM	Cc1cc(-c2nn3c(c2C(N)=O)CN(C(=O)Nc2ccc(C#N)c(F)c2)CC3)ccc1F [Compound 243, N^5-(4-Cyano-3-fluorophenyl)-2-(4-fluoro-3-methylphenyl)-6,7-dihydropyrazolo[1,5-a] pyrazine-3,5(4H)-dicarboxamide]	
0.01 to 10 nM	0.01 to 10 nM	Cc1cc(-c2nn3c(c2C(N)=O)CN(C(=O)Nc2ccc4c(c2)CS(=O)(=O)C4)CC3)ccc1F [Compound 246, N^5-(2,2-Dioxido-1,3-dihydrobenzo[c]thiophen-5-yl)-2-(4-fluoro-3-methylphenyl)-6,7-dihydropyrazolo[1,5-a] pyrazine-3,5(4H)-dicarboxamide]	
0.01 to 10 nM	0.01 to 10 nM	Cc1cc(-c2nn3c(c2C(N)=O)CN(C(=O)Nc2ccc4c(c2)OC(F)(F)O4)CC3)ccc1F [Compound 247, N^5-(2,2-Difluorobenzo [d][1,3]dioxol-5-yl)-2-(4-fluoro-3-methylphenyl)-6,7-dihydropyrazolo[1,5-a]pyrazine-3,5(4H)-dicarboxamide]	
0.01 to 10 nM	0.01 to 10 nM	Cc1cc(-c2nn3c(c2C(N)=O)CN(C(=O)Nc2ccc(C#N)cc2)CC3)ccc1F [Compound 248, N^5-(4-Cyanophenyl)-2-(4-fluoro-3-methylphenyl)-6,7-dihydropyrazolo[1,5-a]pyrazine-3,5(4H)-dicarboxamide]	
0.01 to 10 nM	0.01 to 10 nM	Cc1ccc(-c2nn3c(c2C(N)=O)CN(C(=O)Nc2ccc(C#N)c(C)c2)CC3)cc1Cl [Compound 249, 2-(3-Chloro-4-methylphenyl)-N^5-(4-cyano-3-methylphenyl)-6,7-dihydropyrazolo[1,5-a]pyrazine-3,5(4H)-dicarboxamide]	
0.01 to 10 nM	0.01 to 10 nM	Cc1ccc(-c2nn3c(c2C(N)=O)CN(C(=O)Nc2ccc4c(c2)OC(F)(F)O4)CC3)cc1Cl [Compound 250, 2-(3-Chloro-4-methylphenyl)-N^5-(2,2-difluorobenzo[d][1,3]dioxol-5-yl)-6,7-dihydropyrazolo[1,5-a] pyrazine-3,5(4H)-dicarboxamide]	

— patent US9598423B2 (BRISTOL-MYERS SQUIBB COMPANY, priority 2013, dated 2017)
